Data published in the NIST ThermoML archive (doi:10.1016/j.jct.2014.06.004).

Tests used:
[1] = xn = mol fraction of the nth substance listed; settings: 100 kPa, Liquid; for speed of sound: Frequency=3 MHz, Sing-around technique in a fixed-path interferometer; for mass density: Vibrating tube method
[2] = refractive index (Na D-line) (dimensionless); xn = mol fraction of the nth substance listed; settings: 100 kPa, Liquid, Standard Abbe refractometry

CCCCCCC(=O)O [heptanoic acid] + CCC(=O)O
Settings | mass density, [1] [kg/m3] | refractive index, [2] | speed of sound, [1] [m/s]
293.15 K, x1 = 0.0539 | 985.8 | 1.39 | 1176
293.15 K, x1 = 0.1023 | 979.3 | 1.3929 | 1185
293.15 K, x1 = 0.2037 | 967.5 | 1.3982 | 1202
293.15 K, x1 = 0.3021 | 957.8 | 1.4026 | 1217
293.15 K, x1 = 0.4007 | 949.6 | 1.4066 | 1231
293.15 K, x1 = 0.5015 | 942.3 | 1.4102 | 1244
293.15 K, x1 = 0.6051 | 935.9 | 1.4135 | 1257
293.15 K, x1 = 0.7009 | 930.7 | 1.4162 | 1267
293.15 K, x1 = 0.8016 | 925.8 | 1.4188 | 1277
293.15 K, x1 = 0.9002 | 921.5 | 1.4212 | 1287
293.15 K, x1 = 0.95 | 919.5 | 1.4223 | 1291
293.15 K, x1 = 1 | 917.7 | 1.4234 | 1295
298.15 K, x1 = 0.0539 | 980.5 | 1.388 | 1158
298.15 K, x1 = 0.1023 | 974.2 | 1.3909 | 1166
298.15 K, x1 = 0.2037 | 962.5 | 1.3961 | 1184
298.15 K, x1 = 0.3021 | 953 | 1.4006 | 1199
298.15 K, x1 = 0.4007 | 944.9 | 1.4045 | 1213
298.15 K, x1 = 0.5015 | 937.7 | 1.4081 | 1226
298.15 K, x1 = 0.6051 | 931.1 | 1.4114 | 1239
298.15 K, x1 = 0.7009 | 926.3 | 1.4142 | 1249
298.15 K, x1 = 0.8016 | 921.4 | 1.4169 | 1260
298.15 K, x1 = 0.9002 | 917.2 | 1.4192 | 1269
298.15 K, x1 = 0.95 | 915.3 | 1.4203 | 1273
298.15 K, x1 = 1 | 913.5 | 1.4214 | 1278
303.15 K, x1 = 0.0539 | 975.2 | 1.3859 | 1139
303.15 K, x1 = 0.1023 | 969 | 1.3888 | 1148
303.15 K, x1 = 0.2037 | 957.5 | 1.394 | 1165
303.15 K, x1 = 0.3021 | 948.1 | 1.3985 | 1180
303.15 K, x1 = 0.4007 | 940.2 | 1.4024 | 1195
303.15 K, x1 = 0.5015 | 933.2 | 1.406 | 1208
303.15 K, x1 = 0.6051 | 926.9 | 1.4094 | 1220
303.15 K, x1 = 0.7009 | 921.9 | 1.4121 | 1231
303.15 K, x1 = 0.8016 | 917.1 | 1.4148 | 1242
303.15 K, x1 = 0.9002 | 913 | 1.4171 | 1251
303.15 K, x1 = 0.95 | 911.1 | 1.4183 | 1256
303.15 K, x1 = 1 | 909.3 | 1.4194 | 1260
308.15 K, x1 = 0.0539 | 970 | 1.3838 | 1120
308.15 K, x1 = 0.1023 | 963.8 | 1.3866 | 1129
308.15 K, x1 = 0.2037 | 952.5 | 1.3919 | 1146
308.15 K, x1 = 0.3021 | 943.3 | 1.3963 | 1162
308.15 K, x1 = 0.4007 | 935.5 | 1.4003 | 1176
308.15 K, x1 = 0.5015 | 928.6 | 1.4039 | 1190
308.15 K, x1 = 0.6051 | 922.4 | 1.4073 | 1202
308.15 K, x1 = 0.7009 | 917.5 | 1.4101 | 1213
308.15 K, x1 = 0.8016 | 912.8 | 1.4127 | 1224
308.15 K, x1 = 0.9002 | 908.8 | 1.4151 | 1233
308.15 K, x1 = 0.95 | 906.9 | 1.4162 | 1238
308.15 K, x1 = 1 | 905.1 | 1.4173 | 1242
313.15 K, x1 = 0.0539 | 964.7 | 1.3816 | 1101
313.15 K, x1 = 0.1023 | 958.6 | 1.3845 | 1110
313.15 K, x1 = 0.2037 | 947.5 | 1.3897 | 1128
313.15 K, x1 = 0.3021 | 938.4 | 1.3942 | 1144
313.15 K, x1 = 0.4007 | 930.8 | 1.3982 | 1158
313.15 K, x1 = 0.5015 | 924 | 1.4018 | 1172
313.15 K, x1 = 0.6051 | 918 | 1.4052 | 1185
313.15 K, x1 = 0.7009 | 913.1 | 1.408 | 1196
313.15 K, x1 = 0.8016 | 908.5 | 1.4107 | 1206
313.15 K, x1 = 0.9002 | 904.5 | 1.4131 | 1216
313.15 K, x1 = 0.95 | 902.7 | 1.4142 | 1220
313.15 K, x1 = 1 | 900.9 | 1.4153 | 1225
